Experimental data from ChEMBL document CHEMBL1201862, “PubChem BioAssay data set” (2004).
Activity calls are given as the source filed them. No stated cut-off is given here; in the data, actives have a measured IC50 and inactives only a lower limit.

These molecules were tested against Envelope glycoprotein gp160 (Human immunodeficiency virus 1, UniProt Q6QLK5) (assay: inhibitors of HIV fusion peptide binding, primary screen, biochemical, uHTS, fluorescence dequenching (AID 1986)).
Chain of Envelope glycoprotein gp160 (Q6QLK5 whole entry, the tested form may be a part): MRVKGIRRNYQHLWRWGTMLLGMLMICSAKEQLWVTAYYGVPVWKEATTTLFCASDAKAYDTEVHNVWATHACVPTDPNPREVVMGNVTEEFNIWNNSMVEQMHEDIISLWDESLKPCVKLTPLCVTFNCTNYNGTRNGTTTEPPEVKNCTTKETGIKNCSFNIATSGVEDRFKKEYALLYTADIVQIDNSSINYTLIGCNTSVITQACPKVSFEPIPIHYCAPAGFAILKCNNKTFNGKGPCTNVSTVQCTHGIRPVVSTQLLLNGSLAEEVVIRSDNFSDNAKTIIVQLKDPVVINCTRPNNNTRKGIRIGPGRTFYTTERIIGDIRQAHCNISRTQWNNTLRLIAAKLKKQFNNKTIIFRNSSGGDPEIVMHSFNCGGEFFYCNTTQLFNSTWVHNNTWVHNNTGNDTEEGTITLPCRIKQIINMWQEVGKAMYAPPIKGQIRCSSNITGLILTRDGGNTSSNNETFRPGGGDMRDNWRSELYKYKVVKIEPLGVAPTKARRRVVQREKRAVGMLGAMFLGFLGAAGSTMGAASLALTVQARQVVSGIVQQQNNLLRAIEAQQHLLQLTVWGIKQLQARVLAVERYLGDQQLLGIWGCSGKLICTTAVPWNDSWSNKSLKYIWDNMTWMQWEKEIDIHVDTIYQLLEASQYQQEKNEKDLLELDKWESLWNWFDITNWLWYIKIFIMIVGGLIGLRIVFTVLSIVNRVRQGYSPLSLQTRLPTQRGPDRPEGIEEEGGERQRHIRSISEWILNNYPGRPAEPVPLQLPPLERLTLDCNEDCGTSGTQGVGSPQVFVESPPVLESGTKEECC
In the case of `O=C1NN(c2ccc(Cl)c(Cl)c2)C(=O)/C1=C/c1cccc(OC(=O)c2cccs2)c1`, the IC50 is reported as 11.8 µM (active). In the case of `O=C(CCCN1C(=O)/C(=C/c2cccs2)SC1=S)Nc1ccc(O)c(C(=O)O)c1`, the IC50 is reported as 24.1 µM (active). For `O=C(O)c1ccc(NS(=O)(=O)c2ccc3c(c2)C2C=CCC2C(c2ccccc2F)N3)cc1` (centres undefined), the IC50 was 17.7 µM (active). With `O=C(NC(=S)Nc1ccccc1C(=O)O)c1ccc(-c2ccc(Br)cc2)o1` the IC50 was 18.5 µM (active).
